# Assay results reported in US20240293379A1, “THERAPEUTIC AGENT FOR CANCER OF PATIENT WITH DECREASE IN RB1 FUNCTION USING MYT1 INHIBITOR AND CHEMOTHERAPEUTIC AGENT IN COMBINATION, AND TREATMENT METHOD THEREOF” (Chugai Seiyaku Kabushiki Kaisha, priority 2022, published 2024).
# Experiments:
# Assay in all cases: Pemetrexed cytotoxicity test upon suppression of expression of MYT1
# Assay type in all cases: cell-based
# [1] = system: LU65; conditions: LU65 (RB1 mutant)
# Description: (§1) Thereafter, the plates were shaken to transfect each siRNA at a final concentration of 10 nM.
# (§2) The −Log 2 value of fold change of IC50 and the maximum value of Bliss score, which are indexes of the combination effect, were calculated by comparing with the actually obtained cell survival curve, and described in Table 6 (see Non Patent Literature 9).
# [2] = system: NCI-H292; conditions: NCI-H292 (RB1 wild-type)
# Description: as §1, §2
# [3] = system: NCI-H661; conditions: NCI-H661 (RB1 wild-type)
# Description: as §1, §2
# [4] = system: ChaGo-K-1; conditions: ChaGo-K-1 (RB1 mutant)
# Description: as §1, §2
# [5] = system: NCI-H1155; conditions: NCI-H1155 (RB1 mutant)
# Description: as §1, §2
# [6] = system: NCI-H2110; conditions: NCI-H2110 (RB1 mutant)
# Description: as §1, §2
# [7] = system: NCI-H441; conditions: NCI-H441 (RB1 wild-type)
# Description: as §1, §2
# [8] = system: EKVX; conditions: EKVX (RB1 wild-type)
# Description: as §1, §2
# [9] = system: ABC-1; conditions: ABC-1 (RB1 wild-type)
# Description: as §1, §2
# [10] = system: NCI-H358; conditions: NCI-H358 (RB1 wild-type)
# Description: as §1, §2
# [11] = system: PC-9; conditions: PC-9 (RB1 wild-type)
# Description: as §1, §2
# [12] = system: NCI-H2122; conditions: NCI-H2122 (RB1 wild-type)
# Description: as §1, §2
# [13] = system: NCI-H460; conditions: NCI-H460 (RB1 wild-type)
# Description: as §1, §2
# [14] = system: HOP-62; conditions: HOP-62 (RB1 wild-type)
# Description: as §1, §2
# [15] = system: NCI-H322; conditions: NCI-H322 (RB1 wild-type)
# Description: as §1, §2
# [16] = system: A549; conditions: A549 (RB1 wild-type)
# Description: as §1, §2
# [17] = system: NCI-H596; conditions: NCI-H596 (RB1 mutant)
# Description: as §1, §2
# [18] = system: NCI-H1666; conditions: NCI-H1666 (RB1 wild-type)
# Description: as §1, §2
# [19] = system: NCI-H1993; conditions: NCI-H1993 (RB1 wild-type)
# Description: as §1, §2
# [20] = pemetrexed + MYT1 siRNA #18 10 nM
# [21] = pemetrexed + MYT1 siRNA #16 10 nM
substance,measurement,setting,value
"MYT1 #18: ON-TARGETplus individual siRNA, Dharmacon product code J-005026-18, nucleotide sequence SEQ ID No: 5 (CUUCCGAGCUGCGUUCUGU; chemistry not fully specified)","Cytotoxic activity of siRNA alone, MYT1 #18","[1]; 10 nM, no pemetrexed",−0.297%
same,"Bliss score maximum value, MYT1 #18",[1]; [20],34.154
same,"HSA score maximum value, MYT1 #18",[1]; [20],33.984
same,"Cytotoxic activity of siRNA alone, MYT1 #18","[2]; 10 nM, no pemetrexed",11.155%
same,"Bliss score maximum value, MYT1 #18",[2]; [20],6.895
same,"HSA score maximum value, MYT1 #18",[2]; [20],11.985
same,"Cytotoxic activity of siRNA alone, MYT1 #18","[3]; 10 nM, no pemetrexed",9.766%
same,"Bliss score maximum value, MYT1 #18",[3]; [20],11.699
same,"HSA score maximum value, MYT1 #18",[3]; [20],16.633
same,"Cytotoxic activity of siRNA alone, MYT1 #18","[4]; 10 nM, no pemetrexed",−2.748%
same,"Bliss score maximum value, MYT1 #18",[4]; [20],34.464
same,"HSA score maximum value, MYT1 #18",[4]; [20],32.605
same,"Cytotoxic activity of siRNA alone, MYT1 #18","[5]; 10 nM, no pemetrexed",30.960%
same,"Bliss score maximum value, MYT1 #18",[5]; [20],23.341
same,"HSA score maximum value, MYT1 #18",[5]; [20],32.708
same,"Cytotoxic activity of siRNA alone, MYT1 #18","[6]; 10 nM, no pemetrexed",9.660%
same,"Bliss score maximum value, MYT1 #18",[6]; [20],23.200
same,"HSA score maximum value, MYT1 #18",[6]; [20],28.531
same,"Cytotoxic activity of siRNA alone, MYT1 #18","[7]; 10 nM, no pemetrexed",22.238%
same,"Bliss score maximum value, MYT1 #18",[7]; [20],0.784
same,"HSA score maximum value, MYT1 #18",[7]; [20],17.896
same,"Cytotoxic activity of siRNA alone, MYT1 #18","[8]; 10 nM, no pemetrexed",1.053%
same,"Bliss score maximum value, MYT1 #18",[8]; [20],6.653
same,"HSA score maximum value, MYT1 #18",[8]; [20],7.060
same,"Cytotoxic activity of siRNA alone, MYT1 #18","[9]; 10 nM, no pemetrexed",7.811%
same,"Bliss score maximum value, MYT1 #18",[9]; [20],22.139
same,"Cytotoxic activity of siRNA alone, MYT1 #18","[10]; 10 nM, no pemetrexed",2.693%
same,"Bliss score maximum value, MYT1 #18",[10]; [20],13.168
same,"HSA score maximum value, MYT1 #18",[10]; [20],14.592
same,"Cytotoxic activity of siRNA alone, MYT1 #18","[11]; 10 nM, no pemetrexed",−9.517%
same,"Bliss score maximum value, MYT1 #18",[11]; [20],18.833
same,"HSA score maximum value, MYT1 #18",[11]; [20],14.476
same,"Cytotoxic activity of siRNA alone, MYT1 #18","[12]; 10 nM, no pemetrexed",5.899%
same,"Bliss score maximum value, MYT1 #18",[12]; [20],13.938
same,"Cytotoxic activity of siRNA alone, MYT1 #18","[13]; 10 nM, no pemetrexed",−2.387%
same,"HSA score maximum value, MYT1 #18",[13]; [20],9.099
same,"Cytotoxic activity of siRNA alone, MYT1 #18","[14]; 10 nM, no pemetrexed",10.654%
same,"Bliss score maximum value, MYT1 #18",[14]; [20],20.375
same,"HSA score maximum value, MYT1 #18",[14]; [20],25.849
same,"Cytotoxic activity of siRNA alone, MYT1 #18","[15]; 10 nM, no pemetrexed",−6.271%
same,"Bliss score maximum value, MYT1 #18",[15]; [20],23.827
same,"HSA score maximum value, MYT1 #18",[15]; [20],19.509
same,"Cytotoxic activity of siRNA alone, MYT1 #18","[16]; 10 nM, no pemetrexed",0.844%
same,"Bliss score maximum value, MYT1 #18",[16]; [20],9.581
same,"HSA score maximum value, MYT1 #18",[16]; [20],10.174
same,"Cytotoxic activity of siRNA alone, MYT1 #18","[17]; 10 nM, no pemetrexed",−2.058%
same,"Bliss score maximum value, MYT1 #18",[17]; [20],44.329
same,"HSA score maximum value, MYT1 #18",[17]; [20],42.707
same,"Cytotoxic activity of siRNA alone, MYT1 #18","[18]; 10 nM, no pemetrexed",1.456%
same,"Bliss score maximum value, MYT1 #18",[18]; [20],13.160
same,"HSA score maximum value, MYT1 #18",[18]; [20],13.970
same,"Cytotoxic activity of siRNA alone, MYT1 #18","[19]; 10 nM, no pemetrexed",10.347%
same,"Bliss score maximum value, MYT1 #18",[19]; [20],7.046
same,"HSA score maximum value, MYT1 #18",[19]; [20],14.207
"MYT1 #16: ON-TARGETplus individual siRNA, Dharmacon product code J-005026-16, nucleotide sequence SEQ ID No: 4 (GGACCUAAGUGACAUCAAC; chemistry not fully specified)","Cytotoxic activity of siRNA alone, MYT1 #16","[1]; 10 nM, no pemetrexed",8.109%
same,"Bliss score maximum value, MYT1 #16",[1]; [21],29.374
same,"HSA score maximum value, MYT1 #16",[1]; [21],34.405
same,"Cytotoxic activity of siRNA alone, MYT1 #16","[2]; 10 nM, no pemetrexed",19.878%
same,"Bliss score maximum value, MYT1 #16",[2]; [21],19.031
same,"HSA score maximum value, MYT1 #16",[2]; [21],21.907
same,"Cytotoxic activity of siRNA alone, MYT1 #16","[3]; 10 nM, no pemetrexed",20.313%
same,"Bliss score maximum value, MYT1 #16",[3]; [21],8.081
same,"HSA score maximum value, MYT1 #16",[3]; [21],22.502
same,"Cytotoxic activity of siRNA alone, MYT1 #16","[4]; 10 nM, no pemetrexed",−1.049%
same,"Bliss score maximum value, MYT1 #16",[4]; [21],40.066
same,"HSA score maximum value, MYT1 #16",[4]; [21],39.075
same,"Cytotoxic activity of siRNA alone, MYT1 #16","[5]; 10 nM, no pemetrexed",5.782%
same,"Bliss score maximum value, MYT1 #16",[5]; [21],77.287
same,"HSA score maximum value, MYT1 #16",[5]; [21],76.586
same,"Cytotoxic activity of siRNA alone, MYT1 #16","[6]; 10 nM, no pemetrexed",15.886%
same,"Bliss score maximum value, MYT1 #16",[6]; [21],24.584
same,"HSA score maximum value, MYT1 #16",[6]; [21],36.712
same,"Cytotoxic activity of siRNA alone, MYT1 #16","[7]; 10 nM, no pemetrexed",12.986%
same,"Bliss score maximum value, MYT1 #16",[7]; [21],21.600
same,"HSA score maximum value, MYT1 #16",[7]; [21],30.794
same,"Cytotoxic activity of siRNA alone, MYT1 #16","[8]; 10 nM, no pemetrexed",−1.125%
same,"Bliss score maximum value, MYT1 #16",[8]; [21],16.454
same,"HSA score maximum value, MYT1 #16",[8]; [21],15.771
same,"Cytotoxic activity of siRNA alone, MYT1 #16","[9]; 10 nM, no pemetrexed",3.870%
same,"Bliss score maximum value, MYT1 #16",[9]; [21],21.970
same,"HSA score maximum value, MYT1 #16",[9]; [21],25.475
same,"Cytotoxic activity of siRNA alone, MYT1 #16","[10]; 10 nM, no pemetrexed",0.021%
same,"Bliss score maximum value, MYT1 #16",[10]; [21],12.322
same,"HSA score maximum value, MYT1 #16",[10]; [21],12.336
same,"Cytotoxic activity of siRNA alone, MYT1 #16","[11]; 10 nM, no pemetrexed",−5.180%
same,"Bliss score maximum value, MYT1 #16",[11]; [21],35.148
same,"Cytotoxic activity of siRNA alone, MYT1 #16","[12]; 10 nM, no pemetrexed",11.825%
same,"Bliss score maximum value, MYT1 #16",[12]; [21],15.749
same,"HSA score maximum value, MYT1 #16",[12]; [21],20.659
same,"Cytotoxic activity of siRNA alone, MYT1 #16","[13]; 10 nM, no pemetrexed",−6.609%
same,"Bliss score maximum value, MYT1 #16",[13]; [21],17.443
same,"HSA score maximum value, MYT1 #16",[13]; [21],9.093
same,"Cytotoxic activity of siRNA alone, MYT1 #16","[14]; 10 nM, no pemetrexed",8.347%
same,"Bliss score maximum value, MYT1 #16",[14]; [21],20.165
same,"HSA score maximum value, MYT1 #16",[14]; [21],24.453
same,"Cytotoxic activity of siRNA alone, MYT1 #16","[15]; 10 nM, no pemetrexed",−10.363%
same,"Bliss score maximum value, MYT1 #16",[15]; [21],24.679
same,"Cytotoxic activity of siRNA alone, MYT1 #16","[16]; 10 nM, no pemetrexed",−3.683%
same,"Bliss score maximum value, MYT1 #16",[16]; [21],17.634
same,"HSA score maximum value, MYT1 #16",[16]; [21],15.047
same,"Cytotoxic activity of siRNA alone, MYT1 #16","[17]; 10 nM, no pemetrexed",13.549%
same,"Bliss score maximum value, MYT1 #16",[17]; [21],56.598
same,"HSA score maximum value, MYT1 #16",[17]; [21],67.277
same,"Cytotoxic activity of siRNA alone, MYT1 #16","[18]; 10 nM, no pemetrexed",−4.467%
same,"Bliss score maximum value, MYT1 #16",[18]; [21],8.127
same,"HSA score maximum value, MYT1 #16",[18]; [21],5.753
same,"Cytotoxic activity of siRNA alone, MYT1 #16","[19]; 10 nM, no pemetrexed",35.910%
same,"Bliss score maximum value, MYT1 #16",[19]; [21],5.736
same,"HSA score maximum value, MYT1 #16",[19]; [21],21.843
